From ChEMBL document CHEMBL1649462, “Concentrations of voriconazole in healthy and inflamed lung in rats” (Antimicrob Agents Chemother, 2009)

Experiments:
[1] = fCmax in skeletal muscle of healthy Wistar rat at 6 mg/kg, iv administered as single dose after 6 hrs by microdialysis technique; format: ADME, organism-based, Muscle tissue; design: dose 6 mg/kg, route intravenous; conditions: in vivo
[2] = Protein binding in male Sprague-Dawley rat plasma at 30 mg/kg, po for 6 days; format: ADME, organism-based; design: dose 30 mg/kg, route oral; conditions: read-out: PPB (converted)
[3] = Half life in plasma of healthy Wistar rat at 6 mg/kg, iv administered as single dose after 6 hrs by microdialysis technique; format: ADME, organism-based; design: dose 6 mg/kg, route intravenous
[4] = Cmax in plasma of Wistar rat with LPS-induced severe inflammatory response at 6 mg/kg, iv administered as single dose after 6 hrs by microdialysis technique; format: ADME, organism-based; design: dose 6 mg/kg, route intravenous
[5] = AUC (0 to 6 hrs) in skeletal muscle of Wistar rat with LPS-induced severe inflammatory response at 6 mg/kg, iv administered as single dose after 6 hrs by microdialysis technique; format: ADME, organism-based; design: time < 6 hr, dose 6 mg/kg, route intravenous
[6] = Cmax in plasma of healthy Wistar rat at 6 mg/kg, iv administered as single dose after 6 hrs by microdialysis technique; format: ADME, organism-based; design: dose 6 mg/kg, route intravenous
[7] = fTmax in skeletal muscle of healthy Wistar rat at 6 mg/kg, iv administered as single dose after 6 hrs by microdialysis technique; format: ADME, organism-based, Muscle tissue; design: dose 6 mg/kg, route intravenous; conditions: read-out: fTmax (converted)
Lung [8] = assay: fCmax in lung of Wistar rat with LPS-induced severe inflammatory response at 6 mg/kg, iv administered as single dose after 6 hrs by microdialysis technique; format: ADME, organism-based; design: dose 6 mg/kg, route intravenous; conditions: in vivo
[9] = Tmax in plasma of Wistar rat with LPS-induced severe inflammatory response at 6 mg/kg, iv administered as single dose after 6 hrs by microdialysis technique; format: ADME, organism-based; design: dose 6 mg/kg, route intravenous
[10] = Free AUC (0 to 6 hrs) in skeletal muscle of healthy Wistar rat at 6 mg/kg, iv administered as single dose after 6 hrs by microdialysis technique; format: ADME, organism-based, Muscle tissue; design: dose 6 mg/kg, route intravenous; conditions: in vivo
[11] = fTmax in lung of Wistar rat with LPS-induced severe inflammatory response at 6 mg/kg, iv administered as single dose after 6 hrs by microdialysis technique; format: ADME, organism-based; design: dose 6 mg/kg, route intravenous; conditions: read-out: fTmax (converted)
[12] = fTmax in lung of healthy Wistar rat at 6 mg/kg, iv administered as single dose after 6 hrs by microdialysis technique; format: ADME, organism-based; design: dose 6 mg/kg, route intravenous; conditions: read-out: fTmax (converted)
[13] = Half life in plasma of Wistar rat with LPS-induced severe inflammatory response at 6 mg/kg, iv administered as single dose after 6 hrs by microdialysis technique; format: ADME, organism-based; design: dose 6 mg/kg, route intravenous
[14] = AUC (0 to 6 hrs) in plasma of healthy Wistar rat at 6 mg/kg, iv administered as single dose after 6 hrs by microdialysis technique; format: ADME, organism-based; design: time < 6 hr, dose 6 mg/kg, route intravenous
[15] = Tmax in plasma of healthy Wistar rat at 6 mg/kg, iv administered as single dose after 6 hrs by microdialysis technique; format: ADME, organism-based; design: dose 6 mg/kg, route intravenous
Lung [16] = assay: Free AUC (0 to 6 hrs) in lung of healthy Wistar rat at 6 mg/kg, iv administered as single dose after 6 hrs by microdialysis technique; format: ADME, organism-based; design: dose 6 mg/kg, route intravenous; conditions: in vivo
[17] = AUC (0 to 6 hrs) in lung of Wistar rat with LPS-induced severe inflammatory response at 6 mg/kg, iv administered as single dose after 6 hrs by microdialysis technique; format: ADME, organism-based; design: time < 6 hr, dose 6 mg/kg, route intravenous
Lung [18] = assay: fCmax in lung of healthy Wistar rat at 6 mg/kg, iv administered as single dose after 6 hrs by microdialysis technique; format: ADME, organism-based; design: dose 6 mg/kg, route intravenous; conditions: in vivo
[19] = Protein binding in female Sprague-Dawley rat plasma at 30 mg/kg, po for 6 days; format: ADME, organism-based; design: dose 30 mg/kg, route oral; conditions: read-out: PPB (converted)
[20] = fTmax in skeletal muscle of Wistar rat with LPS-induced severe inflammatory response at 6 mg/kg, iv administered as single dose after 6 hrs by microdialysis technique; format: ADME, organism-based, Muscle tissue; design: dose 6 mg/kg, route intravenous; conditions: read-out: fTmax (converted)
[21] = fCmax in skeletal muscle of Wistar rat with LPS-induced severe inflammatory response at 6 mg/kg, iv administered as single dose after 6 hrs by microdialysis technique; format: ADME, organism-based, Muscle tissue; design: dose 6 mg/kg, route intravenous; conditions: in vivo
[22] = AUC (0 to 6 hrs) in plasma of Wistar rat with LPS-induced severe inflammatory response at 6 mg/kg, iv administered as single dose after 6 hrs by microdialysis technique; format: ADME, organism-based; design: time < 6 hr, dose 6 mg/kg, route intravenous

C[C@@H](c1ncncc1F)[C@](O)(Cn1cncn1)c1ccc(F)cc1F [VORICONAZOLE]
fCmax [1]: 2.2 mg/L | fraction unbound at 144 h [2]: 0.34 | half-life [3]: 10.2 h | Cmax [4]: 6300 ng/mL | AUC(0-t) at 6 h [5]: 8450 ng·h/mL | Cmax [6]: 5400 ng/mL | Tmax [7]: 3.25 h | fCmax (Lung [8]): 2.3 mg/L | Tmax [9]: 0.25 h | fAUC [10]: 530 mg·min/L | Tmax [11]: 1.87 h | Tmax [12]: 2.28 h | half-life [13]: 11.3 h | AUC(0-t) at 6 h [14]: 19600 ng·h/mL | Tmax [15]: 0.817 h | fAUC (Lung [16]): 608 mg·min/L | AUC(0-t) at 6 h [17]: 8170 ng·h/mL | fCmax (Lung [18]): 2.6 mg/L | fraction unbound at 144 h [19]: 0.34 | Tmax [20]: 2.17 h | fCmax [21]: 2.2 mg/L | AUC(0-t) at 6 h [22]: 22700 ng·h/mL
